pIC50: −log10 of the molar value.
Tests used:
UACC-257 = assay: Cytotoxicity against human UACC257 cells assessed as growth inhibition after 48 hrs by sulforhodamine B assay; type: functional; conditions: UACC-257, 48 h
A549 = assay: Cytotoxicity against human A549/ATCC cells assessed as cell growth at 0.1 uM after 48 hrs by sulforhodamine B assay relative to control; type: functional; conditions: A549, 48 h, read-out: Activity
BT-549 [1] = assay: Cytotoxicity against human BT549 cells assessed as cell growth at 100 uM after 48 hrs by sulforhodamine B assay relative to control; type: functional; conditions: BT-549, 48 h, read-out: Activity
Malme-3M = assay: Cytotoxicity against human MALME-3M cells assessed as growth inhibition after 48 hrs by sulforhodamine B assay; type: functional
K562 = assay: Cytotoxicity against human K562 cells assessed as cell growth at 1 uM after 48 hrs by sulforhodamine B assay relative to control; type: functional; conditions: K562, 48 h, read-out: Activity
SK-MEL-28 [2] = assay: Cytotoxicity against human SK-MEL-28 cells assessed as cell growth at 0.1 uM after 48 hrs by sulforhodamine B assay relative to control; type: functional; conditions: SK-MEL-28, 48 h, read-out: Activity
CCRF-CEM [3] = assay: Cytotoxicity against human CCRF-CEM cells assessed as cell growth at 1 uM after 48 hrs by sulforhodamine B assay relative to control; type: functional; conditions: read-out: Activity
UO-31 = assay: Cytotoxicity against human UO31 cells assessed as growth inhibition after 48 hrs by sulforhodamine B assay; type: functional; conditions: UO-31, 48 h
OVCAR-4 = assay: Cytotoxicity against human OVCAR4 cells assessed as cell growth at 10 uM after 48 hrs by sulforhodamine B assay relative to control; type: functional; conditions: OVCAR-4, 48 h, read-out: Activity
SN12C [4] = assay: Cytotoxicity against human SN12C cells assessed as cell growth at 0.1 uM after 48 hrs by sulforhodamine B assay relative to control; type: functional; conditions: read-out: Activity
MDA-MB-231 [5] = assay: Cytotoxicity against human MDA-MB-231 cells assessed as cell growth at 0.01 uM after 48 hrs by sulforhodamine B assay relative to control; type: functional; conditions: MDA-MB-231, 48 h, read-out: Activity
TK-10 [6] = assay: Cytotoxicity against human TK10 cells assessed as cell growth at 0.01 uM after 48 hrs by sulforhodamine B assay relative to control; type: functional; conditions: TK-10, 48 h, read-out: Activity
M14 = assay: Cytotoxicity against human M14 cells assessed as cell growth at 100 uM after 48 hrs by sulforhodamine B assay relative to control; type: functional; conditions: M14, 48 h, read-out: Activity
U-251 [7] = assay: Cytotoxicity against human U251 cells assessed as cell growth at 0.01 uM after 48 hrs by sulforhodamine B assay relative to control; type: functional; conditions: U-251, 48 h, read-out: Activity
U-251 [8] = assay: Cytotoxicity against human U251 cells assessed as cell growth at 10 uM after 48 hrs by sulforhodamine B assay relative to control; type: functional; conditions: U-251, 48 h, read-out: Activity
BT-549 [9] = assay: Cytotoxicity against human BT549 cells assessed as cell growth at 0.01 uM after 48 hrs by sulforhodamine B assay relative to control; type: functional; conditions: BT-549, 48 h, read-out: Activity
NCI-H322M = assay: Cytotoxicity against human NCI-H322M cells assessed as growth inhibition after 48 hrs by sulforhodamine B assay; type: functional
SNB-19 = assay: Cytotoxicity against human SNB19 cells assessed as cell growth at 10 uM after 48 hrs by sulforhodamine B assay relative to control; type: functional; conditions: SNB-19, 48 h, read-out: Activity
CCRF-CEM [10] = assay: Cytotoxicity against human CCRF-CEM cells assessed as cell growth at 0.01 uM after 48 hrs by sulforhodamine B assay relative to control; type: functional; conditions: read-out: Activity
HL-60(TB) = assay: Cytotoxicity against human HL-60(TB) cells assessed as cell growth at 1 uM after 48 hrs by sulforhodamine B assay relative to control; type: functional; conditions: HL-60, 48 h, read-out: Activity
SK-MEL-28 [11] = assay: Cytotoxicity against human SK-MEL-28 cells assessed as cell growth at 0.01 uM after 48 hrs by sulforhodamine B assay relative to control; type: functional; conditions: SK-MEL-28, 48 h, read-out: Activity
MDA-MB-468 = assay: Cytotoxicity against human MDA-MB-468 cells assessed as cell growth at 0.01 uM after 48 hrs by sulforhodamine B assay relative to control; type: functional; conditions: MDA-MB-468, 48 h, read-out: Activity
RXF 393 [12] = assay: Cytotoxicity against human RXF393 cells assessed as cell growth at 0.1 uM after 48 hrs by sulforhodamine B assay relative to control; type: functional; conditions: RXF 393, 48 h, read-out: Activity
SR [13] = assay: Cytotoxicity against human SR cells assessed as cell growth at 0.01 uM after 48 hrs by sulforhodamine B assay relative to control; type: functional; conditions: read-out: Activity
TK-10 [14] = assay: Cytotoxicity against human TK10 cells assessed as cell growth at 0.1 uM after 48 hrs by sulforhodamine B assay relative to control; type: functional; conditions: TK-10, 48 h, read-out: Activity
MOLT-4 = assay: Cytotoxicity against human MOLT4 cells assessed as cell growth at 1 uM after 48 hrs by sulforhodamine B assay relative to control; type: functional; conditions: MOLT-4, 48 h, read-out: Activity
U-251 [15] = assay: Cytotoxicity against human U251 cells assessed as cell growth at 1 uM after 48 hrs by sulforhodamine B assay relative to control; type: functional; conditions: U-251, 48 h, read-out: Activity
TK-10 [16] = assay: Cytotoxicity against human TK10 cells assessed as cell growth at 10 uM after 48 hrs by sulforhodamine B assay relative to control; type: functional; conditions: TK-10, 48 h, read-out: Activity
A498 = assay: Cytotoxicity against human A498 cells assessed as cell growth at 10 uM after 48 hrs by sulforhodamine B assay relative to control; type: functional; conditions: A498, 48 h, read-out: Activity
HT-29 = assay: Cytotoxicity against human HT-29 cells assessed as cell growth at 10 uM after 48 hrs by sulforhodamine B assay relative to control; type: functional; conditions: HT-29, 48 h, read-out: Activity
SK-MEL-28 [17] = assay: Cytotoxicity against human SK-MEL-28 cells assessed as cell growth at 1 uM after 48 hrs by sulforhodamine B assay relative to control; type: functional; conditions: SK-MEL-28, 48 h, read-out: Activity
MDA-MB-435 = assay: Cytotoxicity against human MDA-MB-435 cells assessed as cell growth at 1 uM after 48 hrs by sulforhodamine B assay relative to control; type: functional; conditions: MDA-MB-435, 48 h, read-out: Activity
RXF 393 [18] = assay: Cytotoxicity against human RXF393 cells assessed as cell growth at 100 uM after 48 hrs by sulforhodamine B assay relative to control; type: functional; conditions: RXF 393, 48 h, read-out: Activity
SR [19] = assay: Cytotoxicity against human SR cells assessed as growth inhibition after 48 hrs by sulforhodamine B assay; type: functional
MDA-MB-231 [20] = assay: Cytotoxicity against human MDA-MB-231 cells assessed as growth inhibition after 48 hrs by MTT assay; type: functional, cell-based; conditions: MDA-MB-231, 48 h
Hs-578T = assay: Cytotoxicity against human Hs 578T cells assessed as cell growth at 0.01 uM after 48 hrs by sulforhodamine B assay relative to control; type: functional; conditions: read-out: Activity
SN12C [21] = assay: Cytotoxicity against human SN12C cells assessed as cell growth at 10 uM after 48 hrs by sulforhodamine B assay relative to control; type: functional; conditions: read-out: Activity
[22] = read-out: LC50 (the source's name)

Structure (SMILES): COc1cc(C(=O)/C=C/c2cc(-c3ccc4c(c3)OCO4)n[nH]2)cc(OC)c1OC
- GI50 (UACC-257): 2.95 µM
- LC50 (UACC-257): 32 µM
- TGI (UACC-257): 9.46 µM
- growth at 0.1 µM (A549): 98%
- growth at 100 µM (BT-549 [1]): -77%
- GI50 (Malme-3M): 1.85 µM
- LC50 (Malme-3M): 15.3 µM
- TGI (Malme-3M): 4.69 µM
- growth at 1 µM (K562): 74%
- growth at 0.1 µM (SK-MEL-28 [2]): 99%
- growth at 1 µM (CCRF-CEM [3]): 83%
- GI50 (UO-31): 1.34 µM
- LC50 (UO-31): 5.33 µM
- TGI (UO-31): 2.67 µM
- growth at 10 µM (OVCAR-4): -28%
- growth at 0.1 µM (SN12C [4]): 96%
- growth at 0.01 µM (MDA-MB-231 [5]): 100%
- growth at 0.01 µM (TK-10 [6]): 93%
- growth at 100 µM (M14): -84%
- growth at 0.01 µM (U-251 [7]): 98%
- growth at 10 µM (U-251 [8]): -96%
- growth at 0.01 µM (BT-549 [9]): 97%
- GI50 (NCI-H322M): 2.09 µM
- TGI (NCI-H322M): 6.25 µM
- CC50 (NCI-H322M; [22]): 24.3 µM
- growth at 10 µM (SNB-19): 7%
- growth at 0.01 µM (CCRF-CEM [10]): 99%
- growth at 1 µM (HL-60(TB)): 85%
- growth at 0.01 µM (SK-MEL-28 [11]): 100%
- growth at 0.01 µM (MDA-MB-468): 89%
- growth at 0.1 µM (RXF 393 [12]): 83%
- growth at 0.01 µM (SR [13]): 97%
- growth at 0.1 µM (TK-10 [14]): 92%
- growth at 1 µM (MOLT-4): 94%
- growth at 1 µM (U-251 [15]): 63%
- growth at 10 µM (TK-10 [16]): -18%
- growth at 10 µM (A498): -39%
- growth at 10 µM (HT-29): -22%
- growth at 1 µM (SK-MEL-28 [17]): 92%
- growth at 1 µM (MDA-MB-435): 94%
- growth at 100 µM (RXF 393 [18]): -92%
- GI50 (SR [19]): 1.2 µM
- TGI (SR [19]): 5.63 µM
- CC50 (SR [19]; [22]): > 100 µM
- pIC50 (MDA-MB-231 [20]): 5.92
- growth at 0.01 µM (Hs-578T): 92%
- growth at 10 µM (SN12C [21]): -23%

Reference: ChEMBL document CHEMBL4138123, “Design, synthesis and biological evaluation of novel pyrazolochalcones as potential modulators of PI3K/Akt/mTOR pathway and inducers of apoptosis in breast cancer cells” (Eur J Med Chem, 2017)
